Data reported in patent publication US20230146455A1, “TREATMENT OF INFLAMMATORY DISEASES WITH PEPTIDES AND PHARMACEUTICAL COMPOSITIONS” (Yuyu Pharma, Inc., priority 2020, published 2023).
“Also recorded” adds a separate entry of the source. Where a SMILES comes first, the peptide text is derived from it. [ ]: non-standard residue; d: D form. Hyp = O=C(O)[C@@H]1C[C@@H](O)CN1

System: cytokine and chemokine release in human peripheral blood mononuclear cells (hPBMCs)
Assay: Luminex multiplex, 30 cytokines and chemokines, LPS stimulated hPBMCs (Example 9, Study 2), whole panel
Format: cell-based
Conditions: for LPS-induced pro-inflammatory cytokines and chemokines, whole panel (in words): LPS 5 ug/mL 24 hrs, 100 uM to 1 nM
Experimental: Human PBMCs frozen purchased from ATCC in a cryo-preservative were thawed, washed with Hank's Balanced Salt Solution containing 10% fetal bovine serum, and seeded onto a 24-well plate at a density of 0.5×10^6 cells/well with culture RPMI media containing 10% fetal bovine serum in growth media in a 24 well plate for 24 hrs and maintained at 37° C. in an atmosphere of 95% air and 5% CO2. At the end of 24 hr culture, cells are pretreated with YY-101, YDE-011 and YDE-043 or reference compound, Xiidra® at various concentrations for 2 h before stimulation. An equal volume of 0.5% DMSO is used as a vehicle control. Then, the cells are treated with LPS. Supernatants from treated cells are harvested at 24 hr post-LPS treatment and placed in 96 well for Luminex cytokine & chemokine profiling using a Luminex 200 multiplex assay.
Human PBMCs frozen in a cryopreserve was thawed, washed with Hank's Balanced Salt Solution containing 10% Fetal bovine serum, and seeded onto a 24-well plate at a density of 0.5×10^6 cells/well with culture RPMI media containing 10% Fetal bovine serum in growth media in a 24 well plate for 24 hrs and maintained at 37° C. in an atmosphere of 95% air and 5% CO2.
Treatment Human PBMCs were pretreated with YY-101, YDE-011 and YDE-043 or reference compound; Xiidra® at various concentration (ranging from 1 nM to 100 uM) for 2 h before stimulation. An equal volume of 0.5% DMSO was used as a vehicle control. Then, the cells were treated with LPS at 5 ug/ml. The supernatants from treated cells were harvested at 24 h and placed in a 96 well for Luminex cytokine & chemokine profiling using a Luminex 200 multiplex assay (Luminex; R&D system, USA).
The main study arm with triplicate wells per group in a 24-well plate: • 1. Blank • 2. PBMC: 0.5% DMSO • 3. PBMC+LPS (5 ug/ml) • 4. PBMC+YY-101 100 uM • 5. PBMC+YY-101 10 uM • 6. PBMC+YY-101 1 uM • 7. PBMC+YY-101 0.1 uM • 8. PBMC+YY-101 0.01 uM • 9. PBMC+LPS (5 ug/ml)+Xiidra®100 uM • 10. PBMC+LPS (5 ug/ml)+Xiidra® 10 uM • 11. PBMC+LPS (5 ug/ml)+Xiidra® 1 uM • 12. PBMC+LPS (5 ug/ml)+Xiidra®0.1 uM • 13. PBMC+LPS (5 ug/ml)+Xiidra®0.01 uM • 14. PBMC+LPS (5 ug/ml)+Xiidra®0.001 uM • 15. PBMC+LPS (5 ug/ml)+YY-101 100 uM • 16. PBMC+LPS (5 ug/ml)+YY-101 10 uM • 17. PBMC+LPS (5 ug/ml)+YY-101 1 uM • 18. PBMC+LPS (5 ug/ml)+YY-101 0.1 uM • 19. PBMC+LPS (5 ug/ml)+YY-101 0.01 uM • 20. PBMC+LPS (5 ug/ml)+YY-101 0.001 uM • 21. PBMC+LPS (5 ug/ml)+YDE-011 100 uM • 22. PBMC+LPS (5 ug/ml)+YDE-011 10 uM • 23. PBMC+LPS (5 ug/ml)+YDE-011 1 uM • 24. PBMC+LPS (5 ug/ml)+YDE-011 0.1 uM • 25. PBMC+LPS (5 ug/ml)+YDE-011 0.01 uM • 26. PBMC+LPS (5 ug/ml)+YDE-011 0.001 uM • 27. PBMC+LPS (5 ug/ml)+YDE-043 100 uM • 28. PBMC+LPS (5 ug/ml)+YDE-043 10 uM • 29. PBMC+LPS (5 ug/ml)+YDE-043 1 uM • 30. PBMC+LPS (5 ug/ml)+YDE-043 0.1 uM • 31. PBMC+LPS (5 ug/ml)+YDE-043 0.01 uM • 32. PBMC+LPS (5 ug/ml)+YDE-043 0.001 uM
Multiplex assay was used to measure 30 cytokines and chemokines. The 1:2, 1:10 and 1:200 diluted cell supernatant and serial dilution of the standard were dispensed into a 96 well plate at 50 ul/well. Then, the pre-mixed cocktail of antibody-coated magnetic beads was dispensed at 50 ul/well and incubated at room temperature for 2 h in a horizontal orbital microplate shaker at 800±500 rpm. The beads were washed using a magnetic device to prevent loss. […] The data was calculated with a standard five-parameter logistic nonlinear regression analysis of the data (xPonent software 4.2, USA). […]

Compound | LPS-induced pro-inflammatory cytokines and chemokines, whole panel (in words) | LPS-induced pro-inflammatory cytokines and chemokines, whole panel (in words) (listed as YDE043) | basal levels of cytokine/chemokine production (in words) (no LPS, up to 100 μM)
CC(C)C[C@H](NC(=O)CNC(=O)[C@H](CC(C)C)NC(=O)[C@H](CCC(N)=O)NC(=O)CNC(=O)[C@@H]1C[C@@H](O)CN1)C(=O)N[C@@H](C)C(=O)NCC(=O)N1CCC[C@H]1C(=O)N[C@@H](CCCCN)C(=O)O [YDE-011] (H-[Hyp]GQLGLAGPK-OH) | effectively and potently reduced; also recorded: more potent and effective immunomodulators |  | 
CC(C)C[C@H](NC(=O)[C@H](CCC(N)=O)NC(=O)CNC(=O)[C@@H]1C[C@@H](O)CN1)C(=O)NCC(=O)O [YDE-043] (H-[Hyp]GQLG-OH; N-terminus and C-terminus assumed) | effectively and potently reduced | more potent and effective immunomodulators | 
CC(C)C[C@H](NC(=O)CNC(=O)[C@H](CC(=O)O)NC(=O)[C@H](CCC(N)=O)NC(=O)CNC(=O)[C@@H]1C[C@@H](O)CN1)C(=O)N[C@@H](C)C(=O)NCC(=O)N1CCC[C@H]1C(=O)N[C@@H](CCCCN)C(=O)O [YY-101] (H-[Hyp]GQDGLAGPK-OH; N-terminus and C-terminus assumed) | effectively and potently reduced |  | didn't affect the basal levels of most of cytokine/chemokine production; also recorded: didn't affect the basal levels of cytokine production except TIMP-1
